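48-hour exposure; five concentrations; linearly interpolated endpoints. Abbreviation: GI50, concentration required for 50% inhibition of growth.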 The source made the active and inactive calls. Cut-off read from the data, not from the text of the source: active = GI50 up to about 1.1 µM and inactive = higher.
What was measured:
Experiment in all cases: DTP human tumour cell line panel, 48 h
SNB-78 = system: SNB-78
MCF7 = system: MCF7
KM-20L2 = system: KM-20L2
A498 = system: A498
HCT-15 = system: HCT-15
LOX IMVI = system: LOX IMVI
HOP-18 = system: HOP-18
NCI-H522 = system: NCI-H522
M19-MEL = system: M19-MEL
HCC 2998 = system: HCC 2998
NCI/ADR-RES = system: NCI/ADR-RES
XF498 = system: XF498
DMS-273 = system: DMS-273
ACHN = system: ACHN
CAKI-1 = system: CAKI-1
SR = system: SR
TK-10 = system: TK-10
LXFL 529 = system: LXFL 529
M14 = system: M14
DU-145 = system: DU-145

O=C(CCl)NNC1=Nc2ccc(Cl)cc2SC1
GI50 (SNB-78): 2.03 µM (inactive)
GI50 (MCF7): 3.01 µM (inactive)
GI50 (KM-20L2): 4.3 µM (inactive)
GI50 (A498): 20.6 µM (inactive)
GI50 (HCT-15): 1.81 µM
GI50 (LOX IMVI): 1.14 µM (inactive)
GI50 (HOP-18): 1.88 µM (inactive)
GI50 (NCI-H522): 0.553 µM (active)
GI50 (M19-MEL): 2.18 µM (inactive)
GI50 (HCC 2998): 5.4 µM (inactive)
GI50 (NCI/ADR-RES): 1.8 µM (inactive)
GI50 (XF498): 1.85 µM (inactive)
GI50 (DMS-273): 2.88 µM (inactive)

Cc1ccc(NP(=O)(Oc2ccccc2)N(CCCl)CCCl)cc1 (stereo not given)
GI50 (SNB-78): > 100 µM (inactive)
GI50 (ACHN): 34.6 µM (inactive)
GI50 (KM-20L2): 76.7 µM (inactive)
GI50 (A498): 58.7 µM (inactive)
GI50 (CAKI-1): > 100 µM (inactive)
GI50 (HCT-15): 45.2 µM
GI50 (HOP-18): > 100 µM (inactive)
GI50 (NCI-H522): > 100 µM (inactive)
GI50 (M19-MEL): 28.7 µM (inactive)
GI50 (SR): 95.5 µM (inactive)
GI50 (HCC 2998): 3.56 µM (inactive)
GI50 (TK-10): > 100 µM (inactive)
GI50 (LXFL 529): 99.3 µM (inactive)
GI50 (M14): > 100 µM (inactive)
GI50 (DMS-273): > 100 µM (inactive)

CCCCCn1cc2c3c(cccc31)C1C=C(C)CN(C)[C@@H]1C2.Cc1ccc(C(=O)OC(C(=O)O)C(OC(=O)c2ccc(C)cc2)C(=O)O)cc1 (stereo not given)
GI50 (SNB-78): 13.7 µM (inactive)
GI50 (MCF7): 4.03 µM (inactive)
GI50 (KM-20L2): 3.83 µM (inactive)
GI50 (A498): 8.83 µM (inactive)
GI50 (CAKI-1): 5.69 µM (inactive)
GI50 (HCT-15): 4.58 µM
GI50 (LOX IMVI): 6.47 µM (inactive)
GI50 (HOP-18): 2.33 µM (inactive)
GI50 (NCI-H522): 3.44 µM (inactive)
GI50 (M19-MEL): 4.48 µM (inactive)
GI50 (HCC 2998): 2.6 µM (inactive)
GI50 (NCI/ADR-RES): 6.17 µM (inactive)
GI50 (XF498): 2.67 µM (inactive)
GI50 (DMS-273): 3.92 µM (inactive)

O=C1OC2(CC1C1(O)C3CC4CC(C3)CC1C4)C1CC3CC(C1)CC2C3 (stereo not given)
GI50 (SNB-78): > 100 µM (inactive)
GI50 (ACHN): > 100 µM (inactive)
GI50 (A498): 28.1 µM (inactive)
GI50 (HCT-15): > 100 µM
GI50 (LOX IMVI): 27.9 µM (inactive)
GI50 (HOP-18): 6.61 µM (inactive)
GI50 (M19-MEL): > 100 µM (inactive)
GI50 (TK-10): > 100 µM (inactive)
GI50 (LXFL 529): > 100 µM (inactive)
GI50 (XF498): 9.77 µM (inactive)
GI50 (M14): > 100 µM (inactive)
GI50 (DMS-273): > 100 µM (inactive)

COc1ccc(N2C(Cl)C(=O)C2c2c[nH]c3ccccc23)cc1 (stereo not given)
GI50 (KM-20L2): > 100 µM (inactive)
GI50 (NCI-H522): > 100 µM (inactive)
GI50 (M19-MEL): > 100 µM (inactive)
GI50 (SR): > 100 µM (inactive)
GI50 (TK-10): > 100 µM (inactive)
GI50 (LXFL 529): > 100 µM (inactive)
GI50 (XF498): > 100 µM (inactive)
GI50 (M14): > 100 µM (inactive)

CN/N=C(\C(=O)Nc1ccc(C)c(C)c1)C(C(=O)OC)c1nc2ccc([N+](=O)[O-])cc2nc1O (stereo not given)
GI50 (SNB-78): > 100 µM (inactive)
GI50 (ACHN): > 100 µM (inactive)
GI50 (KM-20L2): > 100 µM (inactive)
GI50 (A498): > 100 µM (inactive)
GI50 (CAKI-1): > 100 µM (inactive)
GI50 (HCT-15): 85.1 µM
GI50 (LOX IMVI): > 100 µM (inactive)
GI50 (NCI-H522): 12.6 µM (inactive)
GI50 (M19-MEL): > 100 µM (inactive)
GI50 (SR): > 100 µM (inactive)
GI50 (HCC 2998): > 100 µM (inactive)
GI50 (TK-10): > 100 µM (inactive)
GI50 (LXFL 529): > 100 µM (inactive)
GI50 (XF498): > 100 µM (inactive)
GI50 (M14): > 100 µM (inactive)
GI50 (DMS-273): > 100 µM (inactive)

Cc1ccc([N+](=O)[O-])cc1S(=O)(=O)Nc1ccc(C2=NNC(c3ccccc3O)C2)cc1 (stereo not given)
GI50 (MCF7): 23.1 µM (inactive)
GI50 (ACHN): 23.6 µM (inactive)
GI50 (A498): 19.9 µM (inactive)
GI50 (DU-145): 38.7 µM (inactive)
GI50 (CAKI-1): 25.1 µM (inactive)
GI50 (HCT-15): 21.2 µM
GI50 (LOX IMVI): 34.8 µM (inactive)
GI50 (NCI-H522): 23.3 µM (inactive)
GI50 (SR): 23.9 µM (inactive)
GI50 (HCC 2998): 34.7 µM (inactive)
GI50 (TK-10): 0.416 µM (active)
GI50 (NCI/ADR-RES): 24.8 µM (inactive)
GI50 (M14): 20.7 µM (inactive)

CC1(C(=O)O)CCC(C(=O)O)C(C)(C)O1 (stereo not given)
GI50 (MCF7): > 100 µM (inactive)
GI50 (ACHN): > 100 µM (inactive)
GI50 (DU-145): > 100 µM (inactive)
GI50 (CAKI-1): > 100 µM (inactive)
GI50 (LOX IMVI): > 100 µM (inactive)
GI50 (NCI-H522): > 100 µM (inactive)
GI50 (HCC 2998): > 100 µM (inactive)
GI50 (TK-10): > 100 µM (inactive)
GI50 (NCI/ADR-RES): > 100 µM (inactive)
GI50 (M14): > 100 µM (inactive)

N#C/C(=C\c1ccncc1)c1csc2ccccc12
GI50 (SNB-78): 23.8 µM (inactive)
GI50 (MCF7): 25 µM (inactive)
GI50 (KM-20L2): 20 µM (inactive)
GI50 (A498): 21.3 µM (inactive)
GI50 (CAKI-1): 27.4 µM (inactive)
GI50 (HCT-15): 24 µM
GI50 (LOX IMVI): 20.4 µM (inactive)
GI50 (HOP-18): 31.1 µM (inactive)
GI50 (NCI-H522): 17.5 µM (inactive)
GI50 (M19-MEL): 31.8 µM (inactive)
GI50 (HCC 2998): 17.4 µM (inactive)
GI50 (NCI/ADR-RES): 22.1 µM (inactive)
GI50 (XF498): 22.3 µM (inactive)
GI50 (DMS-273): 26.3 µM (inactive)

COC(Cc1cc(C(O)(c2ccc(C(C)(C)C)cc2)c2cc(CC(OC)(c3cc(C(OC)(c4ccc(C(C)(C)C)cc4)c4ccc(C(C)(C)C)cc4)c(C)cc3C)c3cc(C(OC)(c4ccc(C(C)(C)C)cc4)c4ccc(C(C)(C)C)cc4)c(C)cc3C)c(C)cc2C)c(C)cc1C)(c1cc(C(OC)(c2ccc(C(C)(C)C)cc2)c2ccc(C(C)(C)C)cc2)c(C)cc1C)c1cc(C(OC)(c2ccc(C(C)(C)C)cc2)c2ccc(C(C)(C)C)cc2)c(C)cc1C
GI50 (MCF7): > 75 µM (inactive)
GI50 (A498): > 75 µM (inactive)
GI50 (DU-145): > 75 µM (inactive)
GI50 (CAKI-1): > 75 µM (inactive)
GI50 (HCT-15): > 75 µM
GI50 (LOX IMVI): > 75 µM (inactive)
GI50 (SR): > 75 µM (inactive)
GI50 (HCC 2998): > 75 µM (inactive)
GI50 (TK-10): > 75 µM (inactive)
GI50 (NCI/ADR-RES): > 75 µM (inactive)
GI50 (M14): > 75 µM (inactive)

Cc1ccc2[nH]c3c(C)c4ccncc4c(C)c3c2c1
GI50 (SNB-78): 1.73 µM (inactive)
GI50 (MCF7): 0.908 µM (active)
GI50 (ACHN): 1.09 µM (active)
GI50 (KM-20L2): 0.815 µM (active)
GI50 (A498): 1.5 µM (inactive)
GI50 (CAKI-1): 0.906 µM (active)
GI50 (HCT-15): 0.63 µM
GI50 (LOX IMVI): 0.871 µM (active)
GI50 (HOP-18): 0.252 µM (active)
GI50 (NCI-H522): 0.929 µM (active)
GI50 (M19-MEL): 1.36 µM (inactive)
GI50 (SR): 0.528 µM (active)
GI50 (HCC 2998): 1.48 µM (inactive)
GI50 (TK-10): 3.81 µM (inactive)
GI50 (NCI/ADR-RES): 0.513 µM (active)
GI50 (LXFL 529): 1.15 µM (inactive)
GI50 (XF498): 1.6 µM (inactive)
GI50 (M14): 1.67 µM (inactive)
GI50 (DMS-273): 0.155 µM (active)

Cc1nc2c(c(=O)[nH]1)S/C(=C(/C#N)c1nc3ccccc3[nH]1)N2c1ccccc1
GI50 (SNB-78): 0.607 µM (active)
GI50 (ACHN): > 100 µM (inactive)
GI50 (KM-20L2): > 100 µM (inactive)
GI50 (A498): > 100 µM (inactive)
GI50 (CAKI-1): > 100 µM (inactive)
GI50 (HCT-15): > 100 µM
GI50 (NCI-H522): > 100 µM (inactive)
GI50 (M19-MEL): > 100 µM (inactive)
GI50 (SR): > 100 µM (inactive)
GI50 (HCC 2998): > 100 µM (inactive)
GI50 (TK-10): > 100 µM (inactive)
GI50 (LXFL 529): > 100 µM (inactive)
GI50 (XF498): > 100 µM (inactive)
GI50 (M14): > 100 µM (inactive)
GI50 (DMS-273): > 100 µM (inactive)

Cc1cc(C)c(S(=O)(=O)N(CCCCCN)OCCCN)c(C)c1
GI50 (MCF7): 17.1 µM (inactive)
GI50 (ACHN): 19.5 µM (inactive)
GI50 (DU-145): 16.7 µM (inactive)
GI50 (CAKI-1): 17.4 µM (inactive)
GI50 (LOX IMVI): 17.7 µM (inactive)
GI50 (SR): 12.7 µM (inactive)
GI50 (HCC 2998): 7.14 µM (inactive)
GI50 (TK-10): 17 µM (inactive)
GI50 (NCI/ADR-RES): 18 µM (inactive)
GI50 (M14): 18.3 µM (inactive)

CC(=O)c1c(-c2ccco2)c(C#N)c(=S)n(C2OC(CO)C(O)C(O)C2O)c1C (stereo not given)
GI50 (MCF7): 88.5 µM (inactive)
GI50 (ACHN): > 100 µM (inactive)
GI50 (DU-145): > 100 µM (inactive)
GI50 (CAKI-1): > 100 µM (inactive)
GI50 (HCT-15): > 100 µM
GI50 (LOX IMVI): 56.6 µM (inactive)
GI50 (SR): 97.5 µM (inactive)
GI50 (TK-10): > 100 µM (inactive)
GI50 (NCI/ADR-RES): 75.9 µM (inactive)
GI50 (M14): 72.9 µM (inactive)
